In ChEMBL document CHEMBL1201862, “PubChem BioAssay data set” (2004):
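48-hour exposure; five concentrations; linearly interpolated endpoints. The concentration for 50% growth inhibition is given as GI50.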 The source made the active and inactive calls. Rule as the data show it: active = GI50 up to about 1.1 µM and inactive = higher.

Tests used:
Assay in all cases: DTP human tumour cell line panel, 48 h
SF-539 = system: SF-539
NCI-H522 = system: NCI-H522
MDA-MB-231 = system: MDA-MB-231
T47D = system: T47D
U-251 = system: U-251
OVCAR-8 = system: OVCAR-8
SNB-19 = system: SNB-19
MDA-MB-435 = system: MDA-MB-435
SNB-75 = system: SNB-75
SK-MEL-28 = system: SK-MEL-28
BT-549 = system: BT-549
NCI-H23 = system: NCI-H23
OVCAR-3 = system: OVCAR-3
EKVX = system: EKVX
HOP-92 = system: HOP-92
NCI/ADR-RES = system: NCI/ADR-RES
HCT-15 = system: HCT-15

SMILES | GI50 (SF-539) | GI50 (NCI-H522) | GI50 (MDA-MB-231) | GI50 (T47D) | GI50 (U-251) | GI50 (OVCAR-8) | GI50 (SNB-19) | GI50 (MDA-MB-435) | GI50 (SNB-75) | GI50 (SK-MEL-28) | GI50 (BT-549) | GI50 (NCI-H23) | GI50 (OVCAR-3) | GI50 (EKVX) | GI50 (HOP-92) | GI50 (NCI/ADR-RES) | GI50 (HCT-15) [µM]
Cc1nc2ccccc2c(=O)n1NC(=O)c1ccc([N+](=O)[O-])cc1 | > 100 µM (inactive) | > 100 µM (inactive) | > 100 µM (inactive) | > 100 µM (inactive) | > 100 µM (inactive) | > 100 µM (inactive) | > 100 µM (inactive) | > 100 µM (inactive) | > 100 µM (inactive) | > 100 µM (inactive) | > 100 µM (inactive) | > 100 µM (inactive) | > 100 µM (inactive) | > 100 µM (inactive) | > 100 µM (inactive) |  | 
O=C(O)CCC(=O)Nc1ccc2ccccc2c1 |  | > 100 µM (inactive) | > 100 µM (inactive) | > 100 µM (inactive) | > 100 µM (inactive) | > 100 µM (inactive) | > 100 µM (inactive) | > 100 µM (inactive) | > 100 µM (inactive) | > 100 µM (inactive) | > 100 µM (inactive) | > 100 µM (inactive) | > 100 µM (inactive) | > 100 µM (inactive) | > 100 µM (inactive) | > 100 µM (inactive) | > 100
COc1ccc(-n2c(=O)c3nc(S)[nH]c3n(-c3ccc(OC)cc3)c2=S)cc1 | > 100 µM (inactive) | 57.4 µM (inactive) | > 100 µM (inactive) | > 100 µM (inactive) | > 100 µM (inactive) | > 100 µM (inactive) |  | > 100 µM (inactive) | > 100 µM (inactive) | > 100 µM (inactive) | > 100 µM (inactive) | > 100 µM (inactive) | > 100 µM (inactive) | > 100 µM (inactive) | > 100 µM (inactive) | > 100 µM (inactive) | > 100
Cc1cc2ncn(CC(=O)O)c2cc1C | > 100 µM (inactive) | > 100 µM (inactive) | > 100 µM (inactive) | > 100 µM (inactive) | > 100 µM (inactive) | > 100 µM (inactive) | > 100 µM (inactive) | > 100 µM (inactive) | > 100 µM (inactive) | > 100 µM (inactive) | > 100 µM (inactive) | > 100 µM (inactive) | > 100 µM (inactive) | > 100 µM (inactive) | > 100 µM (inactive) | > 100 µM (inactive) | > 100
CC(=O)C1C(=O)C(C(C)=O)C2C3C=CC(C3)C12 (configuration not stated) | > 100 µM (inactive) | > 100 µM (inactive) | > 100 µM (inactive) | > 100 µM (inactive) | > 100 µM (inactive) | > 100 µM (inactive) | > 100 µM (inactive) | > 100 µM (inactive) | > 100 µM (inactive) | > 100 µM (inactive) | > 100 µM (inactive) | > 100 µM (inactive) | > 100 µM (inactive) |  | > 100 µM (inactive) | > 100 µM (inactive) | > 100
Cc1c2c(OCC3CCCCO3)nn(C)c(=O)c2c(C)n1-c1ccccc1 (configuration not stated) | 20 µM (inactive) | 17 µM (inactive) | 17.7 µM (inactive) | 22.1 µM (inactive) | 17.4 µM (inactive) | 19.9 µM (inactive) | 21.7 µM (inactive) | 18.3 µM (inactive) | 13 µM (inactive) |  | 19.7 µM (inactive) | 20 µM (inactive) | 16.7 µM (inactive) | 17.1 µM (inactive) | 18 µM (inactive) | 21.3 µM (inactive) | 17.1
COC(=O)C1c2cc3c(cc2C(OC2OC(C)C(OC)C(C)(OC)C2OC)CC1(C)O)C(=O)c1c(O)cc2c(c1C3=O)OC1OC2(C)C(O)C([N+](C)(C)[O-])C1O (configuration not stated) | 0.0883 µM (active) | 0.055 µM (active) | 0.469 µM (active) | 0.13 µM (active) | 0.0386 µM (active) | 0.0927 µM (active) | 0.126 µM (active) | 0.158 µM (active) | 0.179 µM (active) | 0.195 µM (active) | 0.179 µM (active) | 0.105 µM (active) | 0.658 µM (active) | 0.658 µM (active) | 0.144 µM (active) |  | 2.78
O=C(O)CSc1cc(-c2ccccc2)nc2ccccc12 |  | 22.6 µM (inactive) | 98.9 µM (inactive) | 57.9 µM (inactive) | 32.5 µM (inactive) | 63.2 µM (inactive) | > 100 µM (inactive) | 13.3 µM (inactive) |  | 85.1 µM (inactive) | 32 µM (inactive) | 44.7 µM (inactive) | 21.7 µM (inactive) | > 100 µM (inactive) | 72.3 µM (inactive) | 34.2 µM (inactive) | 43.6
